Results on 3 compounds are retold here after ChEMBL document CHEMBL3886244, “Benzoxazole- and tetrahydrobenzoxazole-substituted pyridazinones as GPR119 agonists” (2014).

Where only a bound is given, the exact number is not on record here.

The target of this test is T1, Glucose-dependent insulinotropic receptor (Homo sapiens, UniProt Q8TDV5).
T1 sequence (Q8TDV5 whole entry): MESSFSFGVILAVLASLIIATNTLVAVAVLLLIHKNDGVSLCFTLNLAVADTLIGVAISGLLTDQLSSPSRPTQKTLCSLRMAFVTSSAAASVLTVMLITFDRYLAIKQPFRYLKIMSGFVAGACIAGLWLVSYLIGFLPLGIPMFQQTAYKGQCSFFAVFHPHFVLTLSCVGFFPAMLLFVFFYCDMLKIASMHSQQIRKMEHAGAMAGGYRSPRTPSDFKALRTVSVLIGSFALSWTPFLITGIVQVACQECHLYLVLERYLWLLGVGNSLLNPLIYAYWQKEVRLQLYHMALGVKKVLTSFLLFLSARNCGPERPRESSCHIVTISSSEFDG
Nature of the test: AlphaScreen cAMP Assay: MIN6 cells [Miyazaki J et al. Endocrinology. 1990 July; 127(1):126-32] were stably transfected with an expression vector for human GPR119 cDNA (Acc. No. NP-848566). Min-6/hGPR119 cells are cultured in DMEM, 10% FBS, 50 uM beta-mercaptoethanol, 0.3 mg/mL Geniticin, 2 mM GlutaMAX at 37 C. 5% CO2. For the assay, the cells are placed in Optiplates (white, 384-well, 160W-barcoded, TC, sterile with lid, Cat. No. #6007688 (Perkin Elmer); 10000 cells/well; 50 ul). The plates covered with lids are then incubated for 24 hours at 37 C./5% CO2.After the medium has been sucked out of the wells completely, 10 ul of the test compound are added, the compounds are diluted beforehand with stimulating buffer (140 mM NaCl, 3.6 mM KCl, 0.5 mM NaH2PO4, 0.5 mM MgSO4, 1.5 mM CaCl2, 10 mM Hepes, 5 mM NaHCO3; pH 7.4. 0.5 mM IBMX and 0.1% BSA, the final DMSO concentration is 1%). After 45 minutes' incubation at RT, the cAMP concentrations are determined using the AlphaScreen cAMP Assay. It counts as functional, cell-based. On the technique in general: Bead proximity is the source of the signal in Alpha formats.
Take `CCOc1ccc(-c2nc3ccc(C4=NNC(=O)CC4CC)cc3o2)cc1` (stereo not drawn): the EC50 came to 114 nM.

Take `CC[C@H]1CC(=O)NN=C1c1ccc2nc(-c3ccccc3)oc2c1`: the EC50 is above 10000 nM.

Turning to `CC1CC(=O)NN=C1c1ccc2nc(-c3ccsc3)oc2c1` (stereo not drawn), the EC50 is 267 nM.

What is called EC50 is the concentration giving half of the maximal effect.
